The values below are quoted from earlier work in patent publication US20250375395A1 (priority 2016, published 2025).

For the data set the following is noted: carbonic acid/sodium bicarbonate.

For `O=C([O-])O.[Na+]` [sodium bicarbonate], the pKa was 6.4.

In general, pKa refers to the pH at which an ionisable group is half protonated.
